What was measured:
CBE cells = assay: Airway hydration: apical surface liquid retention on primary CBE cells at air-liquid interface; format: cell-based, canine; conditions: 10 µM, after 8 hours, 50 µl applied to apical surface of CBE cells
Experimental: Primary CBE cells are plated onto collagen-coated, porous membranes maintained at an air-liquid interface to assess maintenance of surface liquid volume over time. […] To reduce artifact due to an apical carbohydrate osmotic gradient upon water loss, glucose was not included in the apical buffer.

Muc5B = Muc5B (Homo sapiens, UniProt Q9HC84); conditions: in vitro; also printed as 3.26%; cited from earlier work

Structure (SMILES) | surface liquid retained (% initial volume) (CBE cells) [%] | concentration required to fully reduce Muc5B (Muc5B) [mM]
N=C(N)NC(=O)c1nc(Cl)c(N)nc1N [Amiloride, amiloride] | 25±19.2 | 
CC(=O)N[C@@H](CS)C(=O)O [NAC, N-acetyl cysteine] |  | 200

Source: patent EP3323812B1, “ARYLALKYL-AND ARYLOXYALKYL-SUBSTITUTED EPITHELIAL SODIUM CHANNEL BLOCKING COMPOUNDS” (Parion Sciences, Inc., priority 2012, dated 2014)
